Here are results for 10 molecules from patent publication US9920042B2, “Compounds for use in the treatment of mycobacterial infections” (Universite de Droit et de la Sante de Lille 2, priority 2012, dated 2018).

The nature of one series: Measurement of the log D. The class given is physicochemical. The following applies: octanol/PBS (1/1); octanol/PBS at pH 7.4, triplicate. The method, then: 40 μL of a solution at 10 mM in the DMSO of the sample are added to 1.96 mL of a mixture of 1/1 octanol/PBS at pH 7.4. The solution is agitated during 2 h at AT. 20 μL of each phase are added to 180 μL MeOH and analyzed by LC-MS. Each compound is evaluated in triplicate. The log D is determined as being the logarithm of the ratio of the product concentrations in the octanol and PBS phases, determined par the mass signals.

Series [1] concerns M. tuberculosis alone or macrophages infected by M. tuberculosis. Kind of series: Potentiation of ethionamide cell test (High Content Screening). The class given is cell-based. The following applies: ligand concentration potentiating ten times the activity of ethionamide; ethionamide constant at 0.1 μg/mL (1/10th of its CMI99); read-out: EC50.
Another series has as its target EthR protein (Mycobacterium tuberculosis, UniProt P9WMC1). The series can be described thus: TSA test (Thermal Shift Assay), fluorescence with Sypro Orange. The class given is binding, M. tuberculosis. The settings on record: melting temperature shift of EthR with ligand vs protein alone.
Series [2] can be described thus: Measurement of the solubility. Type of series: physicochemical. The following applies: aqueous buffer, kinetic from dmso stock; PBS at pH 7.4, 24 h at AT, LC-MS ratio PBS/MeOH; read-out: Solubilité. As for the experimental part:
Measurement of the Solubility
40 μL of a solution at 10 mM in DMSO of the sample are added at 1.96 mL MeOH or PBS at pH 7.4. The samples are then agitated during 24 h at AT, centrifuged during 5 min and then filtrated on filters of 0.45 μm size. 20 μL of each solution are then added to 180 μL MeOH and then analyzed by LC-MS. The solubility is determined as ratio of the surfaces of the mass signals PBS/MeOH.

Series [3] addresses EthR protein (interaction with the ethA gene promoter) (Mycobacterium tuberculosis, UniProt P9WMC1). The series can be described thus: Surface Plasmon Resonance test (SPR): inhibition of EthR binding to the ethA gene promoter. Type of series: biochemical, M. tuberculosis. The source says:
Surface Plasmon Resonance test (SPR) (described in the article “Ethionamide Boosters Combining Bioisosteric Replacement and Structure-Based Drug Design to Solve Pharmacokinetic Issues in a series of potent 1,2,4-Oxadiazole EthR Inhibitors” published in 2012 in the Journal of Medicinal Chemistry)
After having measured the ligands' affinity for the protein, it is necessary to verify that this does indeed result in the inactivation of the transcriptional repressor, thus preventing it from binding to its operon. For this, a functional test based on the principle of surface plasmon resonance is used. Surface Plasmon Resonance (SPR) makes it possible to visualize in real time the phenomena of association or dissociation between a partner immobilized on a biosensor and, a second partner injected in a continuous flow onto this surface. In the present case, the SPR technique enables the interaction between the EthR protein (analyte injected in continuous flow) and the ethA gene promoter (partner immobilized on the surface) to be visualized. Two cells are used for the test: a measuring cell onto which the so-called relevant DNA is affixed, i.e. corresponding to the ethA gene promoter, and a control cell on which is a non-relevant (thus different) DNA strand of same length, enabling the non-specific protein/DNA interactions to be removed. In a first step, the EthR protein is injected alone, until saturation, which enables a signal SIEthR corresponding to the quantity of EthR protein that has come to bind to the DNA to be measured. In a second step, the experience is reiterated in the presence of a potential ligand at different concentrations. If the compound binds to the EthR, thus preventing it from coming to bind on the DNA, a diminution of the response of the dose-dependent signal (SIEthR+lig) is observed.
By using the equation hereafter, it is possible to calculate for each concentration a percentage for the inhibition of the ligand under examination:
By representing the variation of the inhibition percentage depending on the ligand concentration, a value for IC50 can be deduced.

Molecules are shown by their SMILES.

Chain of EthR protein (P9WMC1 whole entry, looked up): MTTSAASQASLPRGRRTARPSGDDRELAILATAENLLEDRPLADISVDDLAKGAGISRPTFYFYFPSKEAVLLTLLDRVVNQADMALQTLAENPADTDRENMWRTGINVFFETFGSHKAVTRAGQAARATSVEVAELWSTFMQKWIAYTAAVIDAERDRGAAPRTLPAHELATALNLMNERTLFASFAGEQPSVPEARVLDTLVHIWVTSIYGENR
Chain of EthR protein (interaction with the ethA gene promoter) (P9WMC1 whole entry, looked up): as above

The logD is the decadic logarithm of the distribution of all forms, ionised or not, between an organic phase and buffer at a given pH. In general, EC50 refers to the concentration at which the effect is half-maximal. One may read the ΔTm as the change in melting temperature against a reference sample. The molecule `CC(C)OC(=O)Cc1nc(-c2ccc(S(=O)(=O)NCCC(F)(F)F)cc2)cs1` [Compound 35, 2-(4-(4-(N-(3,3,3-trifluoropropyl)sulfamoyl)phenyl)thiazol-2-yl) isopropyl acetate] registered a logD at 2 h in the series “Measurement of the log D” of 3.76. In series [1], the EC50 worked out at 300 nM. In addition, the ΔTm on EthR protein turned out to be 11.6 °C. For the same molecule, the solubility at 24 h in series [2] worked out at 2.8 µM.

What is called IC50 is the concentration needed to halve the response being measured. Low values mean greater potency, high ones weaker potency. As to `Cc1nc(-c2ccc(S(=O)(=O)NCCC(C)C)cc2)cs1` [Compound 6, 4-(2-methylthiazol-4-yl)-N-isopentyl benzene sulfonamide], the logD at 2 h in “Measurement of the log D” is 3.55. The EC50 in series [1] stood at 5700 nM. At EthR protein, the ΔTm came to 6.1 °C. Moreover, the solubility at 24 h in series [2] is 20 µM. This molecule displayed an IC50 in series [3] of 4900 ± 100 nM.

In “Measurement of the log D”, `Cc1nc(-c2ccc(C(=O)NCCC(F)(F)F)cc2)cs1` [Compound 43, 4-(2-methylthiazol-4-yl)-N-(3,3,3-trifluoropropyl)benzamide] registered a logD at 2 h of 2.82. Further, the EC50 in series [1] worked out at 83 nM. The ΔTm on EthR protein stood at 11.4 °C. Moreover, in series [2], the solubility at 24 h worked out at 46.9 µM. In addition, in series [3], the IC50 turned out to be 480 ± 60 nM.

In the series “Measurement of the log D”, `CC(C)CCCc1nc(-c2ccc(S(=O)(=O)NCCC(F)(F)F)cc2)cs1` [Compound 38, 4-(2-(4-methylpentyl)thiazol-4-yl)-N-(3,3,3-trifluoropropyl)benzene sulfonamide] displayed a logD at 2 h greater than 4. Further, the EC50 in series [1] came out at 390 nM. At EthR protein, the ΔTm turned out to be 12.4 °C. Moreover, in series [2], the solubility at 24 h is less than 1 µM.

As to `O=C(NCCC(F)(F)F)c1ccc(-c2csc(-c3ccncc3)n2)cc1` [Compound 57, 4-(2-(pyridin-4-yl)thiazol-4-yl)-N-(3,3,3-trifluoropropyl)benzamide], the logD at 2 h in the series “Measurement of the log D” was 3.07. Also, the EC50 in series [1] is less than 10 nM. The ΔTm at EthR protein worked out at 12.6 °C. Moreover, the solubility at 24 h in series [2] was found to be 29 µM.

In the series “Measurement of the log D”, `Cc1nc(-c2ccc(S(=O)(=O)NCCC(F)(F)F)cc2)cs1` [Compound 24] gave a logD at 2 h of 3.12. Further, the EC50 in series [1] worked out at 290 nM. The ΔTm at EthR protein is 8.5 °C. The solubility at 24 h in series [2] was 41.4 µM. In series [3], this molecule showed an IC50 of 550 ± 20 nM.

Molecule `CC(C)Cc1nc(-c2ccc(C(=O)NCCC(F)(F)F)cc2)cs1` [Compound 49, 4-(2-isobutylthiazol-4-yl)-N-(3,3,3-trifluoropropyl)benzamide] showed a logD at 2 h in the series “Measurement of the log D” of 3.91. For the same molecule, the concentration for a half-maximal effect (EC50) in series [1] was less than 40 nM. Further, the ΔTm at EthR protein was found to be 12.6 °C. Besides, in series [2], the solubility at 24 h was found to be 4.4 µM. In addition, the half-inhibitory concentration (IC50) in series [3] is 440 ± 10 nM.

In “Measurement of the log D”, `CCc1cc(-c2nc(-c3ccc(C(=O)NCCC(F)(F)F)cc3)cs2)ccn1` [Compound 58, 4-(2-(2-ethylpyridin-4-yl)thiazol-4-yl)-N-(3,3,3-trifluoropropyl)benzamide] registered a logD at 2 h of 3.95. Moreover, in series [1], the EC50 is less than 10 nM. Further, the ΔTm at EthR protein amounted to 13.3 °C. In series [2], the solubility at 24 h turned out to be 3.3 µM.

Take `CC(C)CCc1cn(-c2ccc(C(=O)NCCC(F)(F)F)cc2)nn1` [Compound 93, 4-(4-isopentyl-1H-1,2,3-triazol-1-yl)-N-(3,3,3-trifluoropropyl)benzamide]: the EC50 in series [1] was greater than 10000 nM. Besides, on EthR protein, the ΔTm was 3.8 °C.

With `CCOC(=O)Cc1nc(-c2ccc(S(=O)(=O)NCCC(F)(F)F)cc2)cs1` [Compound 34], the EC50 in series [1] was 150 nM. Besides, at EthR protein, the ΔTm stood at 0.15 °C.
